From patent US20240368135A1 (VERTEX PHARMACEUTICALS INCORPORATED, priority 2021, published 2024) come the findings set out here.

As a reminder, the IC50 is the concentration that gives 50% inhibition.

In this experiment the target is human NaV 1.8 (Homo sapiens, UniProt Q9Y5Y9). The experiment is described as follows: E-VIPR assay detecting and measuring NaV inhibition properties. It counts as cell-based. The note with it: HEK cells expressing truncated human NaV 1.8; no human serum; read-out: IC50 in the E-VIPR Assay. In a few lines: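 HEK cells expressing truncated, fully active human NaV1.8, with KIR2.1 BacMam co-transduction, were loaded with CC2-DMPE/DiSBAC6(3) voltage-sensing dyes for 20 min at room temperature. Compounds were tested in 11-point 3-fold dilutions (300 nM top final), optionally with 25% human serum, under electrical stimulation with FRET read-out.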
human NaV 1.8, sequence (Q9Y5Y9 126-399 limits assumed): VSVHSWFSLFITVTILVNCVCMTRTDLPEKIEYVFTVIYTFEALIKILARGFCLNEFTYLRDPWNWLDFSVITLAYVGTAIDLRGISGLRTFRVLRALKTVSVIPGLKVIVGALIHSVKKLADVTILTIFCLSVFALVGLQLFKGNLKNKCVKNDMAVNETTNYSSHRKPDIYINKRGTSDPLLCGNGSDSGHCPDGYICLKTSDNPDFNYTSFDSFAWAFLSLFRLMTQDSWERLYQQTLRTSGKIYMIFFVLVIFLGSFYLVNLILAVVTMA
human NaV 1.8, sequence (Q9Y5Y9 660-890 limits assumed): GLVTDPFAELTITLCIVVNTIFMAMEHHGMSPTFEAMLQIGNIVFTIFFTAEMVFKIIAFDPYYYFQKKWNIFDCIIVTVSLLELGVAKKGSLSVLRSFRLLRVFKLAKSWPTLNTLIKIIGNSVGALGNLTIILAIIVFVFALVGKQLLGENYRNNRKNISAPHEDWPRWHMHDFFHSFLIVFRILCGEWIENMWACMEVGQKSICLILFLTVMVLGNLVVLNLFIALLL
human NaV 1.8, sequence (Q9Y5Y9 1148-1722 limits assumed): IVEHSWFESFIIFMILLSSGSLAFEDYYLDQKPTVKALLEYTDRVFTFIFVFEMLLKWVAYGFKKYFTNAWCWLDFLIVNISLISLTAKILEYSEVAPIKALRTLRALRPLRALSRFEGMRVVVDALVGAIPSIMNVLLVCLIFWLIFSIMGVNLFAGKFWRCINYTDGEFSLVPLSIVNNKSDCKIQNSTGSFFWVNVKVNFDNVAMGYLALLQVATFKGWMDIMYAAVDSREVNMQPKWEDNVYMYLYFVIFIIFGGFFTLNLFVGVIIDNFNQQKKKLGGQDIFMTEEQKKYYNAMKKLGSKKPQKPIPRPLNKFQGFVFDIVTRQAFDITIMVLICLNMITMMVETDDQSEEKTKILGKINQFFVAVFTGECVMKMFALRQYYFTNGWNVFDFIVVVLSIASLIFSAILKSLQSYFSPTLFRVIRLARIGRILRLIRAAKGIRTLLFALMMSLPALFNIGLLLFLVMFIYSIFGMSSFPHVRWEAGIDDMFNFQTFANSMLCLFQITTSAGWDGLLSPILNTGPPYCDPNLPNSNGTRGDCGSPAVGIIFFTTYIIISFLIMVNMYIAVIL
As for `C[C@H]1[C@@H](c2ccc(F)c(F)c2OCCN=S(C)(C)=O)[C@H](C(=O)Nc2ccnc(CO)c2)O[C@@]1(C)C(F)(F)F` [Compound 640, (2R,3S,4S,5R)-3-(2-(2-((dimethyl(oxo)-λ^6-sulfaneylidene)amino)ethoxy)-3,4-difluorophenyl)-N-(2-(hydroxymethyl)pyridin-4-yl)-4,5-dimethyl-5-(trifluoromethyl)tetrahydrofuran-2-carboxamide], the IC50 fell in the range of 0.01 to 0.1 µM.

For `COc1c([C@@H]2C[C@](C)(C(F)(F)F)O[C@H]2C(=O)Nc2cn(S(C)(=O)=O)nc2C)ccc(F)c1F` (stereo in doubt) [Compound 684, rel-(2R,3S,5R)-3-(3,4-difluoro-2-methoxyphenyl)-5-methyl-N-(3-methyl-1-(methylsulfonyl)-1H-pyrazol-4-yl)-5-(trifluoromethyl)tetrahydrofuran-2-carboxamide], the IC50 was below 0.01 µM.

`COC[C@@H](O)Cn1cc(NC(=O)[C@@H]2O[C@@](C)(C(F)(F)F)[C@@H](C)[C@H]2c2ccc(F)c(F)c2OC)c(C)n1` [Compound 245, (2R,3S,4S,5R)-3-(3,4-difluoro-2-methoxyphenyl)-N-(1-((S)-2-hydroxy-3-methoxypropyl)-3-methyl-1H-pyrazol-4-yl)-4,5-dimethyl-5-(trifluoromethyl)tetrahydrofuran-2-carboxamide]: the half-maximal inhibitory concentration (IC50) lay within 0.01 to 0.1 µM.

For the compound `Cc1nocc1NC(=O)[C@@H]1O[C@@](C)(C(F)(F)F)[C@@H](C)[C@H]1c1ccc(F)c(F)c1OCCNC1COC1` [Compound 631, (2R,3S,4S,5R)-3-(3,4-difluoro-2-(2-(oxetan-3-ylamino)ethoxy)phenyl)-4,5-dimethyl-N-(3-methylisoxazol-4-yl)-5-(trifluoromethyl)tetrahydrofuran-2-carboxamide], the IC50 lay in the range of 0.01 to 0.1 µM.

Regarding `C[C@@H]1CN(C)CC(=O)N1c1cc(NC(=O)[C@@H]2O[C@@](C)(C(F)(F)F)[C@@H](C)[C@H]2c2ccc(F)c(F)c2OC(F)F)ccn1` [Compound 517, (2R,3S,4S,5R)-3-[2-(difluoromethoxy)-3,4-difluoro-phenyl]-N-[2-[(2R)-2,4-dimethyl-6-oxo-piperazin-1-yl]-4-pyridyl]-4,5-dimethyl-5-(trifluoromethyl)tetrahydrofuran-2-carboxamide], the IC50 is below 0.01 µM.

As to `Cc1nn(C(F)F)cc1NC(=O)[C@@H]1O[C@@](C)(C(F)(F)F)[C@@H](C)[C@H]1c1ccc(F)c(F)c1CCO` [Compound 677, (2R,3S,4S,5R)-3-(3,4-difluoro-2-(2-hydroxyethyl)phenyl)-N-(1-(difluoromethyl)-3-methyl-1H-pyrazol-4-yl)-4,5-dimethyl-5-(trifluoromethyl)tetrahydrofuran-2-carboxamide], the concentration for half-maximal inhibition (IC50) fell in the range of 0.01 to 0.1 µM.

As for `C[C@H]1[C@@H](c2ccc(F)c(F)c2OCCO)[C@H](C(=O)Nc2cnsc2)O[C@@]1(C)C(F)(F)F` [Compound 572, (2R,3S,4S,5R)-3-(3,4-difluoro-2-(2-hydroxyethoxy)phenyl)-N-(isothiazol-4-yl)-4,5-dimethyl-5-(trifluoromethyl)tetrahydrofuran-2-carboxamide], the IC50 lay in the range of 0.01 to 0.1 µM.

Take `CC(=O)N(C)c1cc(NC(=O)[C@@H]2O[C@@](C)(C(F)(F)F)[C@@H](C)[C@H]2c2ccc(F)c(F)c2OCCN2CC3(COC3)C2)ccn1` [Compound 637, (2R,3S,4S,5R)-N-[2-[acetyl(methyl)amino]-4-pyridyl]-3-[3,4-difluoro-2-[2-(2-oxa-6-azaspiro[3.3]heptan-6-yl)ethoxy]phenyl]-4,5-dimethyl-5-(trifluoromethyl)tetrahydrofuran-2-carboxamide]: the half-maximal inhibitory concentration (IC50) lay in the range of 0.01 to 0.1 µM.

As to `COc1c([C@H]2[C@H](C(=O)Nc3ccc(-c4ncco4)nc3)O[C@@](C)(C(F)(F)F)[C@H]2C)ccc(F)c1F` [Compound 399, (2R,3S,4S,5R)-3-(3,4-difluoro-2-methoxyphenyl)-4,5-dimethyl-N-(6-(oxazol-2-yl)pyridin-3-yl)-5-(trifluoromethyl)-tetrahydrofuran-2-carboxamide], the 50% inhibitory concentration (IC50) fell in the range of 0.01 to 0.1 µM.

On to `COc1c([C@H]2[C@H](C(=O)Nc3ccnc(C(C)O)c3)O[C@@](C)(C(F)(F)F)[C@H]2C)ccc(F)c1F` (single isomer, unassigned) [Compound 532], for which the half-inhibitory concentration (IC50) is below 0.01 µM.

`COc1c(C2C(C(=O)Nc3ccnc(S(C)(=N)=O)c3)OC(C)(C(F)(F)F)C2C)ccc(F)c1F` (single isomer, unassigned) [Compound 56, 3-(3,4-difluoro-2-methoxy-phenyl)-4,5-dimethyl-N-[2-(methylsulfonimidoyl)-4-pyridyl]-5-(trifluoromethyl)tetrahydrofuran-2-carboxamide]: the IC50 was 0.1 to 1 µM.

`COc1c([C@H]2[C@H](C(=O)Nc3cnc4n3CCCC4)O[C@@](C)(C(F)(F)F)[C@H]2C)ccc(F)c1F` [Compound 317, (2R,3S,4S,5R)-3-(3,4-difluoro-2-methoxyphenyl)-4,5-dimethyl-N-(5,6,7,8-tetrahydroimidazo[1,2-a]pyridin-3-yl)-5-(trifluoromethyl)-tetrahydrofuran-2-carboxamide]: the half-maximal inhibitory concentration (IC50) lay within 0.1 to 1 µM.

On to `COc1c([C@H]2[C@H](C(=O)Nc3ccnc(OC4CCN(C)C4=O)c3)O[C@@](C)(C(F)(F)F)[C@H]2C)ccc(F)c1F` (single isomer, unassigned) [Compound 198, rel-(2R*,3S*,4S*,5R*)-3-(3,4-difluoro-2-methoxyphenyl)-4,5-dimethyl-N-(2-((1-methyl-2-oxopyrrolidin-3-yl)oxy)pyridin-4-yl)-5-(trifluoromethyl)tetrahydrofuran-2-carboxamide], for which the concentration for half-maximal inhibition (IC50) lay within 0.01 to 0.1 µM.

Regarding `C[C@H]1[C@@H](c2ccc(F)c(F)c2OCCO)[C@H](C(=O)Nc2cncnc2)O[C@@]1(C)C(F)(F)F` [Compound 539, (2R,3S,4S,5R)-3-(3,4-difluoro-2-(2-hydroxyethoxy)phenyl)-4,5-dimethyl-N-(pyrimidin-5-yl)-5-(trifluoromethyl)tetrahydrofuran-2-carboxamide], the half-maximal inhibitory concentration (IC50) was in the range of 0.01 to 0.1 µM.

`CCOc1c([C@H]2[C@H](C(=O)Nc3ccn(C)c(=O)c3)O[C@@](C)(C(F)(F)F)[C@H]2C)ccc(F)c1F` (stereo in doubt) [Compound 101, rac-(2R,3S,4S,5R)-3-(2-ethoxy-3,4-difluorophenyl)-4,5-dimethyl-N-(1-methyl-2-oxo-1,2-dihydropyridin-4-yl)-5-(trifluoromethyl)tetrahydrofuran-2-carboxamide]: the concentration for half-maximal inhibition (IC50) is below 0.01 µM.

Regarding `COc1c([C@H]2[C@H](C(=O)Nc3ccnc(N4CCN[C@@H](C)C4=O)c3)O[C@@](C)(C(F)(F)F)[C@H]2C)ccc(F)c1F` [Compound 485, (2R,3S,4S,5R)-3-(3,4-difluoro-2-methoxyphenyl)-4,5-dimethyl-N-(2-((S)-3-methyl-2-oxopiperazin-1-yl)pyridin-4-yl)-5-(trifluoromethyl)tetrahydrofuran-2-carboxamide], the IC50 is below 0.01 µM.

`C[C@H]1[C@@H](c2ccc(F)c(F)c2O[C@H]2C[C@@H](O)C2)[C@H](C(=O)Nc2cncc(F)c2)O[C@@]1(C)C(F)(F)F` [Compound 660, (2R,3S,4S,5R)-3-(3,4-difluoro-2-((1S,3R)-3-hydroxycyclobutoxy)phenyl)-N-(5-fluoropyridin-3-yl)-4,5-dimethyl-5-(trifluoromethyl)tetrahydrofuran-2-carboxamide]: the IC50 lay in the range of 0.01 to 0.1 µM.
